Results as given in patent publication US10709784B2, “Metal chelating compositions and methods for controlling the growth or activities of a living cell or organism” (CHELATION PARTNERS INCORPORATED, priority 2011, dated 2020).
Values after ≈ are worked out from the molar mass of the structure shown. Where two headings read alike, the source gives them in different places.

Assays:
Type in all cases: cell-based
[1] = tested on: Escherichia coli ATCC #25922; assay: Antibiotic MIC in untreated versus iron-extracted RPMI
From the text: (§1) Test microorganisms included Pseudomonas aeruginosa strain PA01, Escherichia coli ATCC #25922 and Staphylococcus aureus ATCC #29213.

[2] = tested on: Pseudomonas aeruginosa strain PA01; assay: as above
From the text: as §1

[3] = tested on: Staphylococcus aureus ATCC #29213; assay: as above
[4] = tested on: antibiotic resistant strains of Staphylococcus aureus; assay: NCCLS MIC antibiotic sensitivity with added chelator; details: for MIC penicillin: Strain WBG8701
Experimental: Sensitive or antibiotic resistant strains of Staphylococcus aureus (S. aureus) were grown on blood agar plates overnight at 37° C. Four to six individual colonies of each strain were harvested into Mueller-Hinton broth (MHB) and incubated at 37° C. until they reached an optical density equal to or exceeding a 0.5 McFarland standard. The culture was diluted with MHB to equal 0.5 McFarland standard. Dilutions (10^−1) of these standards were used for inocula. Various stains of antibiotic resistant Staphylococcus aureus were used for these tests as shown in the results below. It should be appreciated that growing the bacterial strains on blood agar and then in MHB ensured the inoculum was not restricted for iron prior to the test but rather the bacterial cells were with ample endogenous iron supply.
A range of two-fold dilutions of a test antibiotic was prepared in MHB. […] Soluble and insoluble chelating compositions, as prepared in Example 6 or Example 5, or the free iron chelating agent deferiprone were added to the antibiotic containing tubes at known concentrations of iron binding capacity (referred to as iron binding equivalents) to allow direct comparison of the different compositions or free chelator. The final volume per tube was 500 μl. Bacterial inoculum, 25 μl of the 10^−1 dilutions of the appropriate S. aureus strain was added to each tube. The tubes were incubated at an angle on a reciprocating shaker at 37° C. overnight and results were scored as growth based on turbidity or no growth (lack of turbidity). The Minimum Inhibitory Concentration (MIC) for the antibiotic was determined from the growth results.
A series of tests was set up as in Example 15 with various antibiotic anti-cellular agents. The clinically isolated strains were obtained from the culture collection of Warren Grubb, Curtin University, Perth, Australia.
A series of antibiotic sensitivity tests was set up as in example 16 utilizing the soluble chelating compositions as prepared in Example 6. Separate test series with different clinically isolated Staphylococcus aureus strains, as obtained from the culture collection of Warren Grubb, Curtin University, Perth, Australia, and various antibiotics were employed but for each series a control test comprising addition of iron sufficient to supply two times the chelating capacity of the supplied chelating composition was also included.

[5] = tested on: Candida albicans ATCC 10231; assay: Growth with chelating materials of different molecular weight, 84 hours; details: 30° C., defined medium without added iron, FIG. 8
Experimental: Candida albicans ATCC 10231 was tested for its sensitivities to: the medical chelator deferiprone (#1 in the graph of FIG. 8) (a product of Apotex Pharmaceuticals); the precursor chemicals used for the preparation of soluble chelating compositions of the present invention, including 3-hydroxy-2-methyl-4-pyrone (#2 in the graph of FIG. 8), AHMP as from Example 1 (#3 in the graph of FIG. 8) and MAHMP as from Example 2 (#4 in the graph of FIG. 8) and also the soluble chelating composition as from Example 4 (#5 in the graph of FIG. 8). The yeast was grown in defined medium as for Example 18 with no additional added iron (i.e., the only but adequate Fe available for the yeast was contributed from being present along with the other added medium components). Growth of the yeast in the defined media with added test chelating materials was compared to control samples that had not received any of the chelating materials following 84 hours of incubation and growth at 30° C. […] These chelators being internalized by the yeast were incapable of restricting iron supply to the yeast cells. […] Thus, low molecular weight chelators such as deferiprone and similar compounds permitted growth while the soluble chelating composition that contained functional groups similar to deferiprone but was a molecular weight higher than 1500 Daltons restricted growth, eventhough the various compounds tested were each capable of binding iron through their pyridinone functionality.

[6] = tested on: Candida albicans ATCC 10231; assay: Preservative agent MIC (80% inhibition) challenge test with soluble chelator
[7] = tested on: Candida albicans ATCC 10231; assay: Fluorocytosine MIC (80% growth inhibition) with soluble chelator
Experimental: Candida albicans ATCC 10231, yeast cells, as grown in defined medium with no additional added Fe as in example 18 and example 19, were tested in the same media for their sensitivities to 5-fluorocytosine, as a proto-typical example of the class of […] that are commonly used to control fungal and cancer cell growth in humans and with fluorocytosine plus the soluble chelating composition, as prepared in example 4.

[8] = tested on: Candida albicans ATCC 10231; assay: Nystatin MIC (80% growth inhibition) with soluble chelator
Experimental: Candida albicans ATCC 10231, yeast cells, as grown in defined medium with no additional added Fe as in example 18 and example 19, were tested in the same media for their sensitivities to nystatin, an antifungal agent as proto-typical of the class of polyene antibiotics that are commonly used to control fungal growth and pathogenesis in humans and with nystatin plus the soluble chelating composition, as prepared in example 4. Nystatin as typical of the polyene class of antifungal agents causes membrane damage as part of its mechanism of anti-fungal activity.

[9] = Escherichia coli, ATCC25922, Treated RPMI + 0.009 μM Fe, read-out: MIC
[10] = Escherichia coli, ATCC25922, Untreated RPMI 0.11 μM Fe, read-out: MIC
[11] = Pseudomonas aeruginosa, PA01, Treated RPMI + 0.09 μM Fe, read-out: MIC
[12] = Pseudomonas aeruginosa, PA01, Untreated RPMI 0.11 μM Fe, read-out: MIC
[13] = Staphylococcus aureus, ATCC29213, Treated RPMI + 0.004 μM Fe, read-out: MIC
[14] = Staphylococcus aureus, ATCC29213, Untreated RPMI 0.11 μM Fe, read-out: MIC
[15] = strain WBG525, No Chelator Added (control)
[16] = strain WBG525, plus Soluble Chelating Composition (Example 6) 1.1 mM Fe binding equivalents, * slight growth <5% of control
[17] = strain WBG525, plus Soluble Chelating Composition (Example 6) 2.2 mM Fe binding equivalents, * slight growth <5% of control
[18] = strain WBG4340, No Chelator Added (control)

## C/C(=C\C(=O)OCCCCCCCCC(=O)O)C[C@@H]1OC[C@H](C[C@@H]2O[C@H]2[C@@H](C)[C@H](C)O)[C@@H](O)[C@H]1O [Mupirocin]
[1]; [9]
  MIC: 64 mg/L
[1]; [10]
  MIC: 128 mg/L (≈ 256 µM)
[2]; [11]
  MIC: > 512 mg/L
[2]; [12]
  MIC: > 512 mg/L
[3]; [13]
  MIC: 0.0156 mg/L
[3]; [14]
  MIC: 0.0625 mg/L (≈ 0.125 µM)

## [H]/N=C(/N)N[C@H]1[C@H](O)[C@@H](O)[C@H](O[C@@H]2O[C@@H](C)[C@](O)(C=O)[C@H]2O[C@@H]2O[C@@H](CO)[C@H](O)[C@@H](O)[C@@H]2NC)[C@@H](N/C(N)=N\[H])[C@@H]1O [Streptomycin]
[4]; Staphylococcus aureus, strain WBG525, no chelator added (control), read-out: MIC Streptomycin
  MIC: > 640 mg/L
[4]; [15]
  MIC (100% inhibition) antibiotic: >640 µg/mL
[4]; [16]
  MIC (100% inhibition) antibiotic: 640* μg/ml
[4]; [17]
  MIC (100% inhibition) antibiotic: 160* μg/ml

## Cc1occc(=O)c1O [3-hydroxy-2-methyl-4-pyrone]
[5]
  growth of the yeast compared to control: did not substantially restrict growth

## O=C(O)c1cn(C2CC2)c2cc(N3CCNCC3)c(F)cc2c1=O [Ciprofloxacin]
[1]; [9]
  MIC: 0.008 mg/L
[1]; [10]
  MIC: 0.0078 mg/L (≈ 0.0235 µM)
[2]; [11]
  MIC: 1 mg/L
[2]; [12]
  MIC: 4 mg/L (≈ 12.1 µM)
[3]; [13]
  MIC: 0.25 mg/L
[3]; [14]
  MIC: 0.5 mg/L (≈ 1.51 µM)

## CC1(C)S[C@@H]2[C@H](NC(=O)[C@H](N)c3ccccc3)C(=O)N2[C@H]1C(=O)O [Ampicillin]
[1]; [9]
  MIC: 4 mg/L
[1]; [10]
  MIC: 4 mg/L (≈ 11.4 µM)
[2]; [11]
  MIC: > 512 mg/L
[2]; [12]
  MIC: > 512 mg/L
[3]; [13]
  MIC: 0.25 mg/L
[3]; [14]
  MIC: 1 mg/L (≈ 2.86 µM)

## CC(=O)O[C@H]1C[C@@]2(C)[C@@H](C[C@@H](O)[C@H]3[C@@]4(C)CC[C@@H](O)[C@@H](C)[C@@H]4CC[C@@]32C)/C1=C(\CCC=C(C)C)C(=O)O [Fusidic acid]
[1]; [9]
  MIC: > 512 mg/L
[1]; [10]
  MIC: > 512 mg/L
[2]; [11]
  MIC: > 512 mg/L
[2]; [12]
  MIC: > 512 mg/L
[3]; [13]
  MIC: 0.0625 mg/L
[3]; [14]
  MIC: 0.25 mg/L (≈ 0.484 µM)

## COC(=O)c1ccc(O)cc1 [Paraben, methyl paraben]
[6]; ATCC10231, 48 h, read-out: Sorbate or Paraben MIC, preservative alone, 2 days
  MIC: 500 mg/L (≈ 3290 µM)
[6]; ATCC10231, 240 h, read-out: Sorbate or Paraben MIC, preservative alone, 10 days
  MIC: 1000 mg/L (≈ 6570 µM)

## Nc1nc(=O)[nH]cc1F [Fluorocytosine, 5-fluorocytosine]
[7]; ATCC10231, 96 h, Fluorocytosine alone, 4 d
  MIC: 0.025 mg/L (≈ 0.194 µM)
[7]; ATCC10231, 96 h, plus 25 μg/ml soluble chelator (example 4), 4 d
  MIC: < 0.003 mg/L
[7]; ATCC10231, 240 h, Fluorocytosine alone, 10 d
  MIC: 0.05 mg/L (≈ 0.387 µM)
[7]; ATCC10231, 240 h, plus 25 μg/ml soluble chelator (example 4), 10 d
  MIC: 0.012 mg/L
[7]; ATCC10231, 504 h, Fluorocytosine alone, 21 d
  MIC: 0.05 mg/L (≈ 0.387 µM)
[7]; ATCC10231, 504 h, plus 25 μg/ml soluble chelator (example 4), 21 d
  MIC: 0.012 mg/L

## C[C@@H]1[C@H](O)[C@@H](C)/C=C/C=C/CC/C=C/C=C/C=C/C=C/C(O[C@H]2O[C@H](C)[C@@H](O)[C@H](N)[C@@H]2O)CC2O[C@](O)(CC(O)C(O)CCC(O)CC(O)CC(O)CC(=O)O[C@H]1C)CC(O)C2C(=O)O (stereo partly shown) [Nystatin]
[8]; Nystatin alone, 4 d
  Nystatin MIC: 0.23 mg/L
[8]; Nystatin alone, 10 d
  Nystatin MIC: 3.8 mg/L
[8]; Nystatin alone, 21 d
  Nystatin MIC: 7.5 mg/L
[8]; plus 25 μg/ml soluble chelator (example 4), 4 d
  Nystatin MIC: <0.12 mg/L
[8]; plus 25 μg/ml soluble chelator (example 4), 10 d
  Nystatin MIC: 0.12 mg/L
[8]; plus 25 μg/ml soluble chelator (example 4), 21 d
  Nystatin MIC: 0.47 mg/L

## Gentamcin
[4]; strain WBG1320, No Chelator Added (control), * slight growth <5% of control
  MIC (100% inhibition) antibiotic: 320* μg/ml
[4]; strain WBG1320, plus Soluble Chelating Composition (Example 6) 1.1 mM, * slight growth <5% of control
  MIC (100% inhibition) antibiotic: 40* μg/ml
[4]; strain WBG1320, plus Soluble Chelating Composition (Example 6) 2.2 mM, * slight growth <5% of control
  MIC (100% inhibition) antibiotic: 20* μg/ml

## CN(C)[C@@H]1C(O)=C(C(N)=O)C(=O)[C@@]2(O)C(O)=C3C(=O)c4c(O)cccc4[C@@](C)(O)[C@H]3C[C@@H]12 [Tetracycline]
[4]; [18]
  MIC (100% inhibition) antibiotic: 40 µg/mL (≈ 90 µM)

## penicillin
[4]; no chelator
  MIC penicillin: 640 mg/L
[4]; plus 4.4 mM Fe binding equivalents soluble chelating composition (example 6)
  MIC penicillin: 320 mg/L
[4]; plus iron-loaded chelating composition
  MIC penicillin: did not lower the MIC

## NC[C@H]1O[C@H](O[C@H]2[C@H](O)[C@@H](O[C@H]3O[C@H](CO)[C@@H](O)[C@H](N)[C@H]3O)[C@H](N)C[C@@H]2N)[C@H](O)[C@@H](O)[C@@H]1O [Kanamycin]
[4]; [15]
  MIC (100% inhibition) antibiotic: 320 µg/mL (≈ 660 µM)
[4]; [16]
  MIC (100% inhibition) antibiotic: 20 µg/mL
[4]; [17]
  MIC (100% inhibition) antibiotic: 20 µg/mL

## CC[C@H]1OC(=O)[C@H](C)[C@@H](O[C@H]2C[C@@](C)(OC)[C@@H](O)[C@H](C)O2)[C@H](C)[C@@H](O[C@@H]2O[C@H](C)C[C@H](N(C)C)[C@H]2O)[C@](C)(OC)C[C@@H](C)C(=O)[C@H](C)[C@@H](O)[C@]1(C)O [Clarithromycin]
[1]; [9]
  MIC: 16 mg/L
[1]; [10]
  MIC: > 512 mg/L
[2]; [11]
  MIC: > 512 mg/L
[2]; [12]
  MIC: > 512 mg/L
[3]; [14]
  MIC: 1 mg/L (≈ 1.34 µM)

## Neomycin
[4]; [18]
  MIC (100% inhibition) antibiotic: 1280 µg/mL
[4]; strain WBG4340, plus Soluble Chelating Composition (Example 6) 1.1 mM
  MIC (100% inhibition) antibiotic: 160 µg/mL
[4]; strain WBG4340, plus Soluble Chelating Composition (Example 6) 2.2 mM
  MIC (100% inhibition) antibiotic: 80 µg/mL
[1]; Treated RPMI + 0.009 μM Fe
  MIC: 2 mg/L
[1]; Untreated RPMI 0.11 μM Fe
  MIC: 2 mg/L
[2]; Treated RPMI + 0.09 μM Fe
  MIC: 16 mg/L
[2]; Untreated RPMI 0.11 μM Fe
  MIC: 32 mg/L
[3]; Treated RPMI + 0.004 μM Fe
  MIC: 1 mg/L
[3]; Untreated RPMI 0.11 μM Fe
  MIC: 1 mg/L
